The test system of data set [1] is Streptococcus pneumoniae. Briefly: Antibacterial activity against Streptococcus pneumoniae ATCC 700675 after 18 to 24 hrs by alamar Blue assay. The class given is functional. A general note: Alamar Blue is a resazurin reagent that responds to reducing activity.
Data set [2] has as its system Staphylococcus aureus. Briefly: Antibacterial activity against Staphylococcus aureus ATCC 13709 after 18 to 24 hrs by alamar Blue assay in presence of 20% heat inactivated mouse serum. The data set is classed as functional.
Data set [3] deals with Staphylococcus aureus. Briefly: Ratio of iclaprim MIC to compound MIC for TMP-resistant Staphylococcus aureus expressing DHFR F99Y mutant. The data set is classed as functional.
Data set [4] relates to Streptococcus pneumoniae. Briefly: Antibacterial activity against Streptococcus pneumoniae ATCC 51916 after 18 to 24 hrs by alamar Blue assay. The class given is functional.
The subject of data set [5] is Streptococcus pneumoniae. Briefly: Antibacterial activity against Streptococcus pneumoniae ATCC 700677 after 18 to 24 hrs by alamar Blue assay. The class given is functional.
Data set [6] deals with Streptococcus pneumoniae. Briefly: Antibacterial activity against Streptococcus pneumoniae ATCC BAA-255 after 18 to 24 hrs by alamar Blue assay. The data set is classed as functional.
The nature of data set [7]: Plasma concentration in BALB/c mouse at 5 mg/kg, iv measured at 2 mins by LC-MS/MS analysis. The data set is classed as ADME, organism-based. The arrangement: dose 5 mg/kg, route intravenous.
Data set [8] can be described thus: Terminal half life in BALB/c mouse at 5 mg/kg, iv. Conditions: in vivo, read-out: beta t1/2 (converted). The data set is classed as ADME, organism-based. Details: dose 5 mg/kg, route intravenous.
The test system of data set [9] is Streptococcus pneumoniae. Briefly: Antibacterial activity against Streptococcus pneumoniae ATCC 700671 after 18 to 24 hrs by alamar Blue assay. The class given is functional.
The test system of data set [10] is Staphylococcus aureus. The experiment in a line: Antibacterial activity against Staphylococcus aureus ATCC 13709 after 18 to 24 hrs by alamar Blue assay. The data set is classed as functional.
The test system of data set [11] is Streptococcus pneumoniae. The experiment in a line: Antibacterial activity against Streptococcus pneumoniae ATCC 700676 after 18 to 24 hrs by alamar Blue assay. The data set is classed as functional.
The subject of data set [12] is Streptococcus pneumoniae. The experiment in a line: Antibacterial activity against Streptococcus pneumoniae ATCC 49619 after 18 to 24 hrs by alamar Blue assay. The data set is classed as functional.
Data set [13] is described as follows: AUClast in BALB/c mouse at 5 mg/kg, iv. The data set is classed as ADME, organism-based. Details: dose 5 mg/kg, route intravenous, time 0 - last. Conditions: plasma.
The test system of data set [14] is Staphylococcus aureus. Briefly: animal or person. Conditions: ATCC 13709, in Mus musculus, iv, 24 h, read-out: PD50.
Description: Antibacterial activity against Staphylococcus aureus ATCC 13709 infected in iv dosed BALB/c mouse septicemia model assessed as protection from lethal infection after 24 hrs
The subject of data set [15] is Streptococcus pneumoniae. Briefly: Antibacterial activity against Streptococcus pneumoniae ATCC 700669 after 18 to 24 hrs by alamar Blue assay. The data set is classed as functional.
Data set [16] has as its system Streptococcus pneumoniae. Briefly: Antibacterial activity against Streptococcus pneumoniae ATCC 700904 after 18 to 24 hrs by alamar Blue assay. The class given is functional.
Data set [17] is described as follows: Total clearance in BALB/c mouse at 5 mg/kg, iv. Details: dose 5 mg/kg, route intravenous. Conditions: in vivo. The class given is ADME, organism-based.
Data set [18] concerns Staphylococcus aureus. The experiment in a line: Antibacterial activity against TMP-resistant Staphylococcus aureus expressing DHFR F99Y mutant after 18 to 24 hrs by alamar Blue assay. The data set is classed as functional.
Data set [19] has as its system Streptococcus pneumoniae. The experiment in a line: Antibacterial activity against Streptococcus pneumoniae after 18 to 24 hrs by alamar Blue assay. The data set is classed as functional.
Data set [20] has as its system Streptococcus pneumoniae. Briefly: Antibacterial activity against Streptococcus pneumoniae ATCC 700674 after 18 to 24 hrs by alamar Blue assay. The data set is classed as functional.
Data set [21] in a line: Apparent volume of distribution in BALB/c mouse at 5 mg/kg, iv. The data set is classed as ADME, organism-based. The arrangement: dose 5 mg/kg, route intravenous. As to conditions: in vivo, read-out: Vz.

Converted amounts (≈) assume the structure as drawn.

1 molecule from ChEMBL document CHEMBL3124778, “Structure-based design of new dihydrofolate reductase antibacterial agents: 7-(benzimidazol-1-yl)-2,4-diaminoquinazolines” (J Med Chem, 2014) can be followed below.

As for `Cc1cc2nc(-c3nccs3)n(-c3ccc4c(N)nc(N)nc4c3)c2cc1C`, the minimal inhibitory concentration (MIC) was not above 0.5 µg/mL in the data set on Streptococcus pneumoniae [1]; 0.125 µg/mL in the data set on Staphylococcus aureus [2]; not above 0.5 µg/mL in the data set on Streptococcus pneumoniae [4]; not above 0.5 µg/mL against Streptococcus pneumoniae [5]; not above 0.5 µg/mL in the data set on Streptococcus pneumoniae [6]; 32 µg/mL (≈ 82.6 µM) against Streptococcus pneumoniae [9]. Also, the MIC against Staphylococcus aureus [10] is 0.015 µg/mL (≈ 0.0387 µM); in the data set on Streptococcus pneumoniae [11], not above 0.5 µg/mL; in the data set on Streptococcus pneumoniae [12], 0.25 µg/mL (≈ 0.645 µM); against Streptococcus pneumoniae [15], 8 µg/mL (≈ 20.6 µM); in the data set on Streptococcus pneumoniae [16], 4 µg/mL (≈ 10.3 µM); against Staphylococcus aureus [18] it was 0.25 µg/mL (≈ 0.645 µM). In the data set with Streptococcus pneumoniae [20], this molecule showed a minimal inhibitory concentration (MIC) of 8 µg/mL (≈ 20.6 µM). In addition, in the data set with Staphylococcus aureus [3], the Ratio was 8. The concentration at 2 min in data set [7] was 12700 ng/mL. Moreover, the half-life in [8] was 1.4 h. In data set [13], this molecule showed an AUC(0-t) of 2400 ng·h/mL. Also, the ED50 with Staphylococcus aureus [14] amounted to 2 mg/kg. In data set [17], this molecule showed a clearance of 35 mL/min/kg. The molecule also returned an MIC50 against Streptococcus pneumoniae [19] not above 0.5 µg/mL. In the data set with Streptococcus pneumoniae [19], this molecule returned an MIC90 of 8 µg/mL (≈ 20.6 µM). In addition, the Vd in data set [21] came to 4.4 L/kg.

As a reminder, the MIC is the lowest concentration that inhibits growth of the organism. Broadly, the AUC(0-t) is exposure summed from dosing to a finite time, without extrapolation to infinity. Usually clearance stands for a measure of how efficiently the substance is removed, as volume per time. What is called MIC50 is the lowest concentration that inhibits either 50% of growth or 50% of the strains tested, depending on the study. The MIC90 is an inhibitory concentration at the 90% level, which refers to growth in some studies and to a panel of isolates in others.
